The target in one assay is T1, human CCR2 (Homo sapiens, UniProt P41597).
T1 construct: host or cells: Chem-1 cell line
T1 sequence (P41597 1-360 isoform P41597-2): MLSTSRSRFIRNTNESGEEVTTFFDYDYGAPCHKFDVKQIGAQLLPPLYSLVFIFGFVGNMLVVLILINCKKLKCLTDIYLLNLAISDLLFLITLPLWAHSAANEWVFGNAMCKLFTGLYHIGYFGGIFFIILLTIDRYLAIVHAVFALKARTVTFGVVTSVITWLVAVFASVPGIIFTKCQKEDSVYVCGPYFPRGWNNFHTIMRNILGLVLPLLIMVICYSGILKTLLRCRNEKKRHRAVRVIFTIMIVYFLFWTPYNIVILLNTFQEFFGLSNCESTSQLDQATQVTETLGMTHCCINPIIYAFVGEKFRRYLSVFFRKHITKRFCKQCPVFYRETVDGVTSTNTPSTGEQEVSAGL
The assay can be described thus: Functional Ca2+ release test (B-1). The format is cell-based. The settings on record: Chem-1 cell line transfected with human CCR2; 50% inhibition of the MCP-1 effect, MCP-1 at EC50 (about 5 nM); in some cases means of several determinations. As for the experimental part: The antagonistic action of test substances on CCR2 was determined in a functional Ca^2+ release test. Binding of CCL2/MCP-1 to CCR2 leads to a change in the conformation of the receptor resulting in Gi/Gq protein activation and intracellular signal cascade. This involves, inter alia, an intracellular Ca^2+ release. The test cell used was a Chem-1 cell line transfected with human CCR2 (ChemiSCREEN™ CCR2B Calcium-Optimized FLIPR Cell Line, Merck Millipore).
(§1) The test substances were dissolved in dimethyl sulphoxide (DMSO) at a concentration of 10 mM and serially diluted with DMSO in steps of 1:3.16 for a 10-point dose/activity analysis. According to the desired test concentrations, the substances were pre-diluted in Tyrode with 2 mM CaCl2 and 0.05% BSA.
The cells, cultivated in DMEM high glucose [supplemented with 10% FCS, 1 mM pyruvate, 15 mM HEPES, 500 μg/ml geniticin and non-essential amino acids (NEAA)], were sown at 5000 cells/25 μl in 384 well, μCLEAR/black cell culture plates from Greiner (#781092) and incubated at 37° C. for 24 h. The sowing medium consisted of DMEM high glucose [supplemented with 5% FCS, 1 mM pyruvate, 15 mM HEPES, 50 U/ml penicillin, 50 μg/ml streptomycin and non-essential amino acids (NEAA)]. The medium was then removed and the cells were charged for 60 min at 37° C. with Fluo-4 dye [25 μl Tyrode with 3 μM Fluo-4 AM (1 mM DMSO stock solution), 0.4 mg/ml Brilliant Black, 2.5 mM probenicid, 0.03% Pluronic F-127]. The cells were pre-incubated for 10 min with 10 μl of the test substances diluted in buffer, and 20 μl of agonist solution (MCP-1 in Tyrode with 0.05% BSA) were then added. MCP-1 was employed at the concentration which corresponds to the EC50 which had been determined in a preliminary test (usually about 5 nM). Ca^2+ release was monitored over a period of 120 s in 1 s increments in a proprietary fluorescence imaging reader. The molar concentration of the test substance which caused 50% inhibition of the MCP-1 effect (IC50) was determined using a 4-parameter logistic function (Hill function).

For a further assay, the target named is T2, murine CCR2 (Mus musculus, UniProt P51683).
T2 construct: host or cells: U2OS β-arrestin cell line
T2 sequence (P51683 whole entry): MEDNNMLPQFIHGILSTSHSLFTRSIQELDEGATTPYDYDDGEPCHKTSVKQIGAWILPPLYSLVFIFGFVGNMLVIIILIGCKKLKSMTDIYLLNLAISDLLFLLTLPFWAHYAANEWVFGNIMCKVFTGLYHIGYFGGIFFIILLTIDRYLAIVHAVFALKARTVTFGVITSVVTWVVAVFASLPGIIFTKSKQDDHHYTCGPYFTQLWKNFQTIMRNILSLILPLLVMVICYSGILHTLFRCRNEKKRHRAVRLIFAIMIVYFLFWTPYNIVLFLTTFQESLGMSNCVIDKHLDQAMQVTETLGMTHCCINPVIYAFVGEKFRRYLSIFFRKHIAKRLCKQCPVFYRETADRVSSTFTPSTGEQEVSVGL
Put plainly: Functional β-arrestin recruiting test with murine MCP-1 (B-2b). The format is cell-based. The settings on record: U2OS β-arrestin cell line transfected with murine CCR2; agonist murine MCP-1; in some cases means of several determinations. How it is done:
The antagonistic action of test substances on CCR2 was determined in a β-arrestin test. The PathHunter β-arrestin GPCR test system (DiscoveRx Corporation, Ltd.) is a cell-based functional method for detecting binding of β-arrestin to an activated receptor. The molecular basis is a […] complementation measured by the enzymatic conversion of a chemiluminescent substrate. The test cell used was a U2OS β-arrestin cell line transfected with murine CCR2 (93-0543C3, DiscoveRx Corporation, Ltd.).
as §1
The cells, cultivated in MEM Eagle (supplemented with 10% FCS, 50 U/ml of penicillin, 50 μg/ml of streptomycin, 250 μg/ml of hygromycin and 500 μg/ml of geniticin), were sown at 2000 cells/25 μl in 384 well, μCLEAR/black cell culture plates from Greiner (#781092) and incubated at 37° C. for 24 h. The sowing medium consisted of Opti-MEM (supplemented with 1% FCS, 50 U/ml of penicillin and 50 μg/ml of streptomycin). The cells were pre-incubated for 10 min with 10 μl of the test substances diluted in buffer, and 10 μl of agonist solution [human MCP-1 (PeproTech, #300-04) in Tyrode with 0.05% BSA) were then added. The human MCP-1 was employed at the concentration which corresponds to the EC50 which had been determined in a preliminary test (usually about 3 nM). After 90 min of incubation at 37° C., the solution was removed, and recruitment of β-arrestin to CCR2 was detected with the aid of the PathHunter detection reagent (93-001, DiscoveRx Corporation, Ltd.) according to the instructions of the manufacturer. Luminescence was measured after an incubation time of 60 min using a proprietary luminescence imaging measuring instrument. The molar concentration of the test substance which caused 50% inhibition of the MCP-1 effect (IC50) was determined using a 4-parameter logistic function (Hill function).
The test was carried out in a manner identical to that described above under B-2a, but using murine MCP-1 (PeproTech, #250-10) as agonist.

Molecules are shown by their SMILES.

Consider `CN(C)c1cccc(-c2nc(C(F)(F)F)c(Oc3ccc(Cl)c(C(F)(F)F)c3)c(=O)[nH]2)n1` [Example 135, 5-[4-chloro-3-(trifluoromethyl)phenoxy]-2-[6-(dimethylamino)pyridin-2-yl]-6-(trifluoromethyl)pyrimidin-4(3H)-one], for which the figures for the IC50 against human CCR2 and on murine CCR2 were 0.014 µM and 1.57 µM, respectively.

For `Cn1nc(-c2nc(C(F)(F)F)c(Oc3ccc(Cl)c(Cl)c3)c(=O)[nH]2)c2ccccc21` [Example 136, 5-(3,4-dichlorophenoxy)-2-(1-methyl-1H-indazol-3-yl)-6-(trifluoromethyl)pyrimidin-4(3H)-one], the values for the IC50 against human CCR2 and on murine CCR2 were 0.039 µM and 1.22 µM, respectively.

With `Cn1nc(-c2nc(C(F)(F)F)c(Oc3ccc(Cl)c(C(F)(F)F)c3)c(=O)[nH]2)c2ccccc21` [Example 137, 5-[4-chloro-3-(trifluoromethyl)phenoxy]-2-(1-methyl-1H-indazol-3-yl)-6-(trifluoromethyl)pyrimidin-4(3H)-one], the IC50 against human CCR2 turned out to be 0.016 µM; on murine CCR2 it was 0.334 µM.

`COc1cccnc1-c1nc(C(F)(F)F)c(Oc2ccc(Cl)c(OC(F)(F)F)c2)c(=O)[nH]1` [Example 138]: the IC50 is 0.0014 µM against human CCR2 and 0.412 µM on murine CCR2.

With `O=c1[nH]c(-c2n[nH]c3ccccc23)nc(C(F)(F)F)c1Oc1ccc(Cl)c(Cl)c1` [Example 139, 5-(3,4-Dichlorophenoxy)-2-(1H-indazol-3-yl)-6-(trifluoromethyl)pyrimidin-4(3H)-one], the IC50 against human CCR2 is 0.0007 µM; on murine CCR2 it was 0.229 µM.

As to `O=c1[nH]c(-c2n[nH]c3ccccc23)nc(C(F)(F)F)c1Oc1ccc(Cl)c(C(F)(F)F)c1` [Example 140, 5-[4-chloro-3-(trifluoromethyl)phenoxy]-2-(1H-indazol-3-yl)-6-(trifluoromethyl)pyrimidin-4(3H)-one], the IC50 against human CCR2 worked out at 0.0008 µM; at murine CCR2 it was 0.075 µM.

As to `Cn1nc(-c2nc(C(F)(F)F)c(Oc3ccc(Cl)c(Cl)c3)c(=O)[nH]2)c2c(Cl)cccc21` [Example 141, 2-(4-chloro-1-methyl-1H-indazol-3-yl)-5-(3,4-dichlorophenoxy)-6-(trifluoromethyl)pyrimidin-4(3H)-one], the IC50 on human CCR2 is 0.0051 µM; at murine CCR2 it was 0.274 µM.

As for `Cn1nc(-c2nc(C(F)(F)F)c(Oc3ccc(Cl)c(C(F)(F)F)c3)c(=O)[nH]2)c2c(Cl)cccc21` [Example 142, 2-(4-chloro-1-methyl-1H-indazol-3-yl)-5-[4-chloro-3-(trifluoromethyl)phenoxy]-6-(trifluoromethyl)pyrimidin-4(3H)-one], the results for the IC50 at human CCR2 and on murine CCR2 were 0.0033 µM and 0.246 µM, respectively.

`COc1cncnc1-c1nc(C(F)(F)F)c(Oc2ccc(Cl)c(Cl)c2)c(=O)[nH]1` [Example 143, 5-(3,4-dichlorophenoxy)-5′-methoxy-6-(trifluoromethyl)-2,4′-bipyrimidin-4(3H)-one]: the IC50 was 0.0011 µM on human CCR2 and 0.086 µM on murine CCR2.

For the molecule `COc1cccc(-c2nc(C(F)(F)F)c(Oc3ccc(Cl)c(Cl)c3)c(=O)[nH]2)n1` [Example 144, 5-(3,4-dichlorophenoxy)-2-(6-methoxypyridin-2-yl)-6-(trifluoromethyl)pyrimidin-4(3H)-one], the IC50 at human CCR2 is 0.017 µM; on murine CCR2, 0.759 µM.

For `CC(C)Oc1ccnc(-c2nc(C(F)(F)F)c(Oc3ccc(Cl)c(Cl)c3)c(=O)[nH]2)c1` [Example 145, 5-(3,4-dichlorophenoxy)-2-(4-isopropoxypyridin-2-yl)-6-(trifluoromethyl)pyrimidin-4(3H)-one], the figures for the IC50 at human CCR2 and at murine CCR2 were 0.322 µM and 2.81 µM, respectively.

Take `CC(C)(C)Oc1cccc(-c2nc(C(F)(F)F)c(Oc3ccc(Cl)c(Cl)c3)c(=O)[nH]2)n1` [Example 146, 2-(6-tent-butoxypyridin-2-yl)-5-(3,4-dichlorophenoxy)-6-(trifluoromethyl)pyrimidin-4(3H)-one]: the results for the IC50 against human CCR2 and on murine CCR2 were 0.404 µM and 3.5 µM, respectively.

As for `COc1ccnc(-c2nc(C(F)(F)F)c(Oc3ccc(Cl)c(Cl)c3)c(=O)[nH]2)c1` [Example 147, 5-(3,4-dichlorophenoxy)-2-(4-methoxypyridin-2-yl)-6-(trifluoromethyl)pyrimidin-4(3H)-one], the IC50 came out at 0.121 µM against human CCR2 and 0.373 µM at murine CCR2.

In the case of `COc1ccc(-c2nc(C(F)(F)F)c(Oc3ccc(Cl)c(Cl)c3)c(=O)[nH]2)nc1` [Example 148, 5-(3,4-dichlorophenoxy)-2-(5-methoxypyridin-2-yl)-6-(trifluoromethyl)pyrimidin-4(3H)-one], the values for the IC50 on human CCR2 and on murine CCR2 were 0.042 µM and 0.454 µM, respectively.

With `COc1cccc(-c2nc(C(F)(F)F)c(Oc3ccc(Cl)c(C(F)(F)F)c3)c(=O)[nH]2)n1` [Example 149, 5-[4-chloro-3-(trifluoromethyl)phenoxy]-2-(6-methoxypyridin-2-yl)-6-(trifluoromethyl)pyrimidin-4(3H)-one], the values for the IC50 on human CCR2 and on murine CCR2 were 0.0007 µM and 0.526 µM, respectively.

`CC(C)Oc1ccnc(-c2nc(C(F)(F)F)c(Oc3ccc(Cl)c(C(F)(F)F)c3)c(=O)[nH]2)c1` [Example 150, 5-[4-chloro-3-(trifluoromethyl)phenoxy]-2-(4-isopropoxypyridin-2-yl)-6-(trifluoromethyl)pyrimidin-4(3H)-one]: the IC50 worked out at 0.023 µM at human CCR2 and 1.34 µM at murine CCR2.

For the molecule `CC(C)(C)Oc1cccc(-c2nc(C(F)(F)F)c(Oc3ccc(Cl)c(C(F)(F)F)c3)c(=O)[nH]2)n1` [Example 151, 2-(6-tert-butoxypyridin-2-yl)-5-[4-chloro-3-(trifluoromethyl)phenoxy]-6-(trifluoromethyl)pyrimidin-4(3H)-one], the IC50 on human CCR2 is 0.096 µM; on murine CCR2, 3.68 µM.

`COc1ccnc(-c2nc(C(F)(F)F)c(Oc3ccc(Cl)c(C(F)(F)F)c3)c(=O)[nH]2)c1` [Example 152, 5-[4-chloro-3-(trifluoromethyl)phenoxy]-2-(4-methoxypyridin-2-yl)-6-(trifluoromethyl)pyrimidin-4(3H)-one]: the IC50 turned out to be 0.0082 µM against human CCR2 and 0.838 µM on murine CCR2.

In the case of `Nc1ccc(-c2nc(C(F)(F)F)c(Oc3ccc(Cl)c(C(F)(F)F)c3)c(=O)[nH]2)nn1` [Example 153, 2-(6-aminopyridazin-3-yl)-5-[4-chloro-3-(trifluoromethyl)phenoxy]-6-(trifluoromethyl)pyrimidin-4(3H)-one], the IC50 was 0.0007 µM against human CCR2 and 0.087 µM on murine CCR2.

Values taken from patent US20160237059A1, “HETEROCYCLIC SUBSTITUTED TRIFLUOROMETHYL PYRIMIDINONES AND THEIR USE” (BAYER PHARMA AKTIENGESELLSCHAFT, priority 2013, published 2016).
